Measured values published in ChEMBL document CHEMBL1614632, “Trend analysis of a database of intravenous pharmacokinetic parameters in humans for 670 drug compounds” (Drug Metab Dispos, 2008).

Experiments:
clinical [1] = settings: human, in vivo, iv
clinical [2] = settings: human, in vivo, iv, t1/2
clinical [3] = settings: human, in vivo, iv, CL
clinical [4] = settings: human, in vivo, iv, Vdss

CC[C@@]1(O)C(=O)OCc2c1cc1n(c2=O)Cc2c-1nc1cc(F)c(C)c3c1c2[C@@H](N)CC3 [EXATECAN]
MRT (clinical [1]): 7.6 h
half-life (clinical [2]): 6.7 h
clearance (clinical [3]): 0.96 mL/min/kg
Vd (clinical [4]): 0.44 L/kg

O=C1NCC2(CCN(CCc3ccccc3)CC2)O1 [FENSPIRIDE]
MRT (clinical [1]): 19 h
half-life (clinical [2]): 14 h
clearance (clinical [3]): 2.6 mL/min/kg
Vd (clinical [4]): 3 L/kg

OC(Cn1cncn1)(Cn1cncn1)c1ccc(F)cc1F [FLUCONAZOLE]
MRT (clinical [1]): 40 h
half-life (clinical [2]): 30 h
clearance (clinical [3]): 0.31 mL/min/kg
Vd (clinical [4]): 0.75 L/kg

Nc1nc(=O)[nH]cc1F [FLUCYTOSINE]
MRT (clinical [1]): 5.7 h
half-life (clinical [2]): 4.2 h
clearance (clinical [3]): 2 mL/min/kg
Vd (clinical [4]): 0.68 L/kg

CCOC(=O)Nc1ccc(NCc2ccc(F)cc2)nc1N [FLUPIRTINE]
MRT (clinical [1]): 11 h
half-life (clinical [2]): 8.5 h
clearance (clinical [3]): 1.6 mL/min/kg
Vd (clinical [4]): 1.1 L/kg

C[C@@H]1O[C@@H]1P(=O)(O)O [FOSFOMYCIN]
MRT (clinical [1]): 2.7 h
half-life (clinical [2]): 1.9 h
clearance (clinical [3]): 2 mL/min/kg
Vd (clinical [4]): 0.32 L/kg

O=C(O)[C@@H]1C[C@@H](C2CCCCC2)CN1C(=O)CP(=O)(O)CCCCc1ccccc1 [FOSINOPRILAT]
MRT (clinical [1]): 6.8 h
half-life (clinical [2]): 9.4 h
clearance (clinical [3]): 0.32 mL/min/kg
Vd (clinical [4]): 0.13 L/kg

C[C@@](O)(/C=C/[C@H]1CC=CC(=O)O1)[C@@H](C[C@@H](O)\C=C/C=C\C=C\CO)OP(=O)(O)O [FOSTRIECIN]
MRT (clinical [1]): 1.2 h
half-life (clinical [2]): 1.5 h
clearance (clinical [3]): 1.2 mL/min/kg
Vd (clinical [4]): 0.086 L/kg

CN[C@@H]1CCc2[nH]c3ccc(C(N)=O)cc3c2C1 [FROVATRIPTAN]
MRT (clinical [1]): 22 h
half-life (clinical [2]): 24 h
clearance (clinical [3]): 2.5 mL/min/kg
Vd (clinical [4]): 3.6 L/kg

COc1ccc2c3c1O[C@H]1C[C@@H](O)C=C[C@@]31CCN(C)C2 [GALANTAMINE]
MRT (clinical [1]): 6.8 h
half-life (clinical [2]): 5.3 h
clearance (clinical [3]): 5.6 mL/min/kg
Vd (clinical [4]): 2.3 L/kg

Nc1nc(O)c2ncn(COC(CO)CO)c2n1 [GANCICLOVIR]
MRT (clinical [1]): 3.7 h
half-life (clinical [2]): 3.7 h
clearance (clinical [3]): 4.6 mL/min/kg
Vd (clinical [4]): 1 L/kg

COc1c(N2CCNC(C)C2)c(F)cc2c(=O)c(C(=O)O)cn(C3CC3)c12 (stereo not given) [GATIFLOXACIN]
MRT (clinical [1]): 11 h
half-life (clinical [2]): 10 h
clearance (clinical [3]): 2.8 mL/min/kg
Vd (clinical [4]): 1.7 L/kg

C[C@H]([C@](O)(Cn1cncn1)c1ccc(F)cc1F)S(C)(=O)=O [GENACONAZOLE]
MRT (clinical [1]): 54 h
half-life (clinical [2]): 49 h
clearance (clinical [3]): 0.19 mL/min/kg
Vd (clinical [4]): 0.62 L/kg

C[C@@H]1C(=O)O[C@H]2C[C@@]34[C@H]5C[C@@H](C(C)(C)C)[C@]36[C@@H](OC(=O)[C@@H]6O)O[C@@]4(C(=O)O5)[C@]21O [GINKGOLIDE A]
MRT (clinical [1]): 4.6 h
half-life (clinical [2]): 3.8 h
clearance (clinical [3]): 2.3 mL/min/kg
Vd (clinical [4]): 0.62 L/kg

C[C@@H]1C(=O)O[C@H]2[C@H](O)[C@@]34[C@H]5C[C@@H](C(C)(C)C)[C@]36[C@@H](OC(=O)[C@@H]6O)O[C@@]4(C(=O)O5)[C@@]12O [GINKOLIDE B]
MRT (clinical [1]): 6.6 h
half-life (clinical [2]): 5.2 h
clearance (clinical [3]): 2.3 mL/min/kg
Vd (clinical [4]): 0.91 L/kg

CN1C2CCCC1CC(NC(=O)c1nn(C)c3ccccc13)C2 (stereo not given) [GRANISETRON]
MRT (clinical [1]): 6.7 h
half-life (clinical [2]): 5.2 h
clearance (clinical [3]): 9.1 mL/min/kg
Vd (clinical [4]): 3.7 L/kg

N=C(N)NC(=O)Cc1c(Cl)cccc1Cl [GUANFACINE]
MRT (clinical [1]): 22 h
half-life (clinical [2]): 15 h
clearance (clinical [3]): 4.5 mL/min/kg
Vd (clinical [4]): 5.6 L/kg

C[C@]12CCC(=O)C=C1CC[C@@H]1[C@@H]2[C@@H](O)C[C@@]2(C)[C@H]1CC[C@]2(O)C(=O)CO [HYDROCORTISONE]
MRT (clinical [1]): 1.9 h
half-life (clinical [2]): 1.6 h
clearance (clinical [3]): 5.7 mL/min/kg
Vd (clinical [4]): 0.38 L/kg

NS(=O)(=O)c1cc2c(cc1C(F)(F)F)NCNS2(=O)=O [HYDROFLUMETHIAZIDE]
MRT (clinical [1]): 3.8 h
half-life (clinical [2]): 5.2 h
clearance (clinical [3]): 9.7 mL/min/kg
Vd (clinical [4]): 2.2 L/kg

NC(=O)NO [HYDROXYUREA]
MRT (clinical [1]): 4.8 h
half-life (clinical [2]): 3.4 h
clearance (clinical [3]): 1.5 mL/min/kg
Vd (clinical [4]): 0.52 L/kg

Cc1cc(O)c2c(=O)c3c(O)cc(O)c4c5c(O)cc(O)c6c(=O)c7c(O)cc(C)c8c1c2c(c34)c(c78)c65 [HYPERICIN]
MRT (clinical [1]): 32 h
half-life (clinical [2]): 42 h
clearance (clinical [3]): 0.13 mL/min/kg
Vd (clinical [4]): 0.25 L/kg

CCCCCCCN(CC)CCCC(O)c1ccc(NS(C)(=O)=O)cc1 (stereo not given) [IBUTILIDE]
MRT (clinical [1]): 7.7 h
half-life (clinical [2]): 7 h
clearance (clinical [3]): 26 mL/min/kg
Vd (clinical [4]): 12 L/kg

c1ccc2c(c1)OCC(C1=NCCN1)O2 (stereo not given) [IDAZOXAN]
MRT (clinical [1]): 5.5 h
half-life (clinical [2]): 4.2 h
clearance (clinical [3]): 10 mL/min/kg
Vd (clinical [4]): 3.3 L/kg

O=P1(NCCCl)OCCCN1CCCl (stereo not given) [IFOSFAMIDE]
MRT (clinical [1]): 9.4 h
half-life (clinical [2]): 6.6 h
clearance (clinical [3]): 1.1 mL/min/kg
Vd (clinical [4]): 0.62 L/kg

C[N+](C)([O-])CCCN1c2ccccc2CCc2ccccc21 [IMIPRAMINOXIDE]
MRT (clinical [1]): 2.6 h
half-life (clinical [2]): 1.8 h
clearance (clinical [3]): 12 mL/min/kg
Vd (clinical [4]): 1.9 L/kg

Cc1cnc(NCCCN(C)C)c2c1[nH]c1ccc3cc(O)ccc3c12 [INTOPLICINE]
MRT (clinical [1]): 11 h
half-life (clinical [2]): 19 h
clearance (clinical [3]): 18 mL/min/kg
Vd (clinical [4]): 11 L/kg

CNC(=O)c1c(I)c(NC(C)=O)c(I)c(C(=O)O)c1I [IOTHALAMIC ACID]
MRT (clinical [1]): 1.2 h
half-life (clinical [2]): 1.3 h
clearance (clinical [3]): 2.4 mL/min/kg
Vd (clinical [4]): 0.17 L/kg

CC1=C(CO)C2=C(C)C3(CC3)[C@@](C)(O)C(=O)C2=C1 [IROFULVEN]
MRT (clinical [1]): 0.4 h
half-life (clinical [2]): 0.3 h
clearance (clinical [3]): 140 mL/min/kg
Vd (clinical [4]): 3.1 L/kg

Cc1cc(NC(=O)C2=C(O)c3ccccc3S(=O)(=O)N2C)no1 [ISOXICAM]
MRT (clinical [1]): 44 h
half-life (clinical [2]): 33 h
clearance (clinical [3]): 0.07 mL/min/kg
Vd (clinical [4]): 0.19 L/kg

C/C(=C\c1csc(C)n1)[C@@H]1C[C@@H]2O[C@]2(C)CCC[C@H](C)[C@H](O)[C@@H](C)C(=O)C(C)(C)[C@@H](O)CC(=O)N1 [IXABEPILONE]
MRT (clinical [1]): 18 h
half-life (clinical [2]): 17 h
clearance (clinical [3]): 10 mL/min/kg
Vd (clinical [4]): 11 L/kg

NC[C@H]1O[C@H](O[C@H]2[C@H](O)[C@@H](O[C@H]3O[C@H](CO)[C@@H](O)[C@H](N)[C@H]3O)[C@H](N)C[C@@H]2N)[C@H](O)[C@@H](O)[C@@H]1O [KANAMYCIN]
MRT (clinical [1]): 3.1 h
half-life (clinical [2]): 2.1 h
clearance (clinical [3]): 1.4 mL/min/kg
Vd (clinical [4]): 0.26 L/kg

CCC(=O)C1(c2cccc(O)c2)CCN(C)CC1 [KETOBEMIDONE]
MRT (clinical [1]): 0.87 h
half-life (clinical [2]): 2.3 h
clearance (clinical [3]): 9.2 mL/min/kg
Vd (clinical [4]): 0.48 L/kg

Cc1c(OCC(F)(F)F)ccnc1C[S+]([O-])c1nc2ccccc2[nH]1 (stereo not given) [LANSOPRAZOLE]
MRT (clinical [1]): 1.1 h
half-life (clinical [2]): 1 h
clearance (clinical [3]): 4.4 mL/min/kg
Vd (clinical [4]): 0.28 L/kg

Nc1nc2c(c(=O)[nH]1)N(C=O)C(CNc1ccc(C(=O)N[C@@H](CCC(=O)O)C(=O)O)cc1)CN2 (stereo not given in full) [LEUCOVORIN]
MRT (clinical [1]): 0.8 h
half-life (clinical [2]): 1.3 h
clearance (clinical [3]): 5.8 mL/min/kg
Vd (clinical [4]): 0.25 L/kg

C[C@H]1COc2c(N3CCN(C)CC3)c(F)cc3c(=O)c(C(=O)O)cn1c23.C[C@H]1COc2c(N3CCN(C)CC3)c(F)cc3c(=O)c(C(=O)O)cn1c23.O [LEVOFLOXACIN]
MRT (clinical [1]): 11 h
half-life (clinical [2]): 8.8 h
clearance (clinical [3]): 1.9 mL/min/kg
Vd (clinical [4]): 1.2 L/kg

COc1ccc2c(c1)N(C[C@H](C)CN(C)C)c1ccccc1S2 [LEVOMEPROMAZINE]
MRT (clinical [1]): 21 h
half-life (clinical [2]): 30 h
clearance (clinical [3]): 9.9 mL/min/kg
Vd (clinical [4]): 12 L/kg

CC(=O)NC[C@H]1CN(c2ccc(N3CCOCC3)c(F)c2)C(=O)O1 [LINEZOLID]
MRT (clinical [1]): 5.4 h
half-life (clinical [2]): 4.5 h
clearance (clinical [3]): 1.8 mL/min/kg
Vd (clinical [4]): 0.58 L/kg

CN1C(=O)C(O)N=C(c2ccccc2Cl)c2cc(Cl)ccc21 (stereo not given) [LORMETAZEPAM]
MRT (clinical [1]): 6.7 h
half-life (clinical [2]): 4.9 h
clearance (clinical [3]): 4 mL/min/kg
Vd (clinical [4]): 1.6 L/kg

CCCCc1nc(Cl)c(CO)n1Cc1ccc(-c2ccccc2-c2nn[nH]n2)cc1 [LOSARTAN]
MRT (clinical [1]): 0.75 h
half-life (clinical [2]): 1.8 h
clearance (clinical [3]): 8.2 mL/min/kg
Vd (clinical [4]): 0.37 L/kg

CC[C@H](C)C(=O)O[C@H]1C[C@@H](C)C=C2C=C[C@H](C)[C@H](CC[C@@H]3C[C@@H](O)CC(=O)O3)[C@H]21 [LOVASTATIN]
MRT (clinical [1]): 1.3 h
half-life (clinical [2]): 1.4 h
clearance (clinical [3]): 7.2 mL/min/kg
Vd (clinical [4]): 0.87 L/kg
